Measurements published in patent publication US20220062436A1, “DRUG-PROTEIN CONJUGATES” (priority 2012, published 2022).
pIC50: −log10 of the molar value. Square brackets hold non-standard residues; d marks the D form. Peptide text beside a SMILES is read from it. * marks the point of attachment. Dolaproine = CO[C@@H]([C@@H]1CCCN1)[C@@H](C)C(=O)O; Dil = CC[C@H](C)[C@H](NC)[C@@H](CC(=O)O)OC; X1 = C[C@@H](N*)[C@@H](O)c1ccccc1; NMeV = CN[C@H](C(=O)O)C(C)C

Experiments:
[1] = system: HER2-positive BT-474 cells; experiment: Cell viability assay (CellTiter Glo luminescence), inhibition of cell growth; type: cell-based; details: 96 h incubation
Method: (§1) The in vitro efficacy of the mAb-reagent 1 conjugates were determined by measuring the inhibitory effect on cell growth of HER-2 receptor over-expressing cancer cell lines.
(§2) Loss of tumour cell viability following treatment with cytotoxic drugs or ADCs in vitro can be measured by growing cell lines in the presence of increasing concentrations of drugs or ADCs and quantifying the loss of proliferation or metabolic activity using CellTiter Glo® Luminescence reagent (Promega Corp. Technical Bulletin TB288; Lewis Phillips G. D, Cancer Res 2008; 68:9280-9290). The protocol describes cell seeding, drug treatment and determination of the cell viability in reference to untreated cells based on ATP synthesis, which is directly related to the number of cells present in the well.
(§3) HER2-positive SK-BR-3 and BT-474 cells were trypsinised with 3 mL Trypsin EDTA for 5-15 min. Trypsinisation was stopped by adding 10 mL complete medium, and cells were transferred to a 50 mL Falcon tube. Cells were counted using a Neubauer haemocytometer and adjusted to a cell density of 1×10^5/mL for BT-474 and 5×10^4/mL for SK-BR-3 respectively. Cells were seeded (100 μL/well) into poly-D-lysine coated opaque-walled 96-well plates and incubated for 24 h at 37° C. and 5% CO2. Tumour cell lines SK-BR-3 (ATCC-HTB-30) and BT-474 (ATCC-HTB-20) were purchased from the American Type Culture Collection. SK-BR-3 cells were grown in McCoy's 5A medium (Life Technologies®), 10% fetal bovine serum, 100 u/mL Penicillin and 100 μg/mL Streptomycin. BT-474 cells were grown in DMEM/F-12 medium (Life Technologies®), 10% fetal bovine serum, 100 u/mL Penicillin and 100 μg/mL Streptomycin. […]
(§4) The cell viability assay was carried out using the Cell-Titer Glo® Luminescence reagent, as described by the manufacturer's instructions, (Promega Corp. Technical Bulletin TB288; Lewis Phillips G. D, Cancer Res 2008; 68:9280-9290). […] Luminescence was recorded using a plate reader (e.g. MD Spectramax M3 plate reader), and data subsequently analysed using a four parameter non-linear regression model.
(§5) The results are shown in FIG. 6, which illustrates cell viability responses to treatment with either antibody-reagent 1 conjugate within SKBR-3 or BT-474 cells. Viability is expressed as % of untreated cells. […]
(§6) The in vitro efficacy of the reagent 6 and reagent 9 antibody conjugates prepared in Example 12 were determined by measuring the inhibitory effect on cell growth of HER-2 receptor over-expressing cancer cell lines by the method of Example 9.
(§7) The results are shown in FIG. 7, which illustrates cell viability responses to treatment with either reagent 6 conjugate or reagent 9 conjugate within SKBR-3 or BT-474 cells. Viability is expressed as % of untreated cells. […]

[2] = system: HER2-positive SK-BR-3 cells; experiment: as above; type: cell-based; details: 96 h incubation
Method: as §1, §2, §3, §4, §5, §6, §7

What does the source list for `CC[C@H](C)[C@@H]([C@@H](CC(=O)N1CCC[C@H]1[C@H](OC)[C@@H](C)C(=O)N[C@H](C)[C@@H](O)c1ccccc1)OC)N(C)C(=O)[C@@H](NC(=O)[C@@H](NC)C(C)C)C(C)C` [MMAE, monomethyl auristatin E] (H-[NMeV]V[Dil][Dolaproine]-X1)?
pIC50 ([1]; Example 9, Table 5): 9.12; pIC50 ([1]; Example 13, Table 7): 9.07; pIC50 ([2]; Example 9, Table 5): 9.70; pIC50 ([2]; Example 13, Table 7): 9.57
